The values that follow come from PubChem BioAssay (NCI).

Where “and” joins values, the source holds several entries; their conditions need not be identical. Identical values can stand only once.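 Method: 48-hour compound exposure of cells in 96-well plates, five concentrations, linear interpolation of endpoints. TGI marks complete inhibition of growth.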

Some test systems named below: SN12C renal; NCI-H522 lung; COLO 205 colon; MALME-3M melanoma; NCI-H460 lung; HCT-15 colon; SW-620 colon; U251 CNS; MDA-N; BT-549 breast.
Holding throughout (assay): growth of human tumour cells (NCI), 48 h

Consider `NCCSc1nc(N)c2ncn(C3OC(CO)C(O)C3O)c2n1` (stereo not drawn), for which the TGI with SN12C renal, in the test on NCI-H522 lung, with COLO 205 colon, in the test on MALME-3M melanoma, in the test on NCI-H460 lung and with HCT-15 colon was greater than 100 µM each time. The TGI in the test on SW-620 colon and in the test with U251 CNS was greater than 100 µM each time.

In the case of `CC1CC/C(=C\c2ccc(F)cc2)C2=C1C(c1ccc(F)cc1)n1c(s/c(=C\c3ccc(Cl)cc3)c1=O)=N2` (stereo not drawn), the TGI in the test on SN12C renal, with HCT-15 colon, in the test with MDA-N, in the test with SW-620 colon and in the test on U251 CNS was greater than 100 µM throughout.

With `COC1=CC(=O)C2C(C1=O)[C@@H]1c3ccccc3OC[C@H]21` (stereo partly drawn), the TGI in the test with NCI-H522 lung, in the test with COLO 205 colon, in the test on MALME-3M melanoma, with NCI-H460 lung, in the test on SW-620 colon and in the test on U251 CNS was greater than 100 µM each time.

Regarding `O=C(O)CCCN=C(C(=NCCCC(=O)O)c1ccccc1)c1ccccc1`, the TGI in the test on SN12C renal, with COLO 205 colon, in the test on NCI-H460 lung, with HCT-15 colon, with MDA-N and in the test with SW-620 colon was greater than 100 µM throughout. For the same molecule, the TGI in the test with U251 CNS and in the test on BT-549 breast was greater than 100 µM throughout.

As for `CCOC(=O)C1C(=O)c2cccc(OC)c2C2COC(=O)N12` (stereo not drawn), the TGI in the test on SN12C renal, in the test with NCI-H522 lung, in the test on COLO 205 colon, in the test with MALME-3M melanoma, with NCI-H460 lung and in the test with HCT-15 colon was greater than 100 µM throughout. Also, the TGI in the test with SW-620 colon and with U251 CNS was greater than 100 µM throughout.

On to `O=c1[nH]c(Br)nc2c(N3CCCCC3)c[nH]c12`, for which the TGI with SN12C renal is greater than 100 µM; in the test with NCI-H522 lung, 81.8 µM; in the test on COLO 205 colon it was greater than 100 µM; with MALME-3M melanoma, greater than 100 µM; in the test on NCI-H460 lung, greater than 100 µM; in the test on HCT-15 colon it was greater than 100 µM. For the same molecule, the TGI with SW-620 colon and with U251 CNS was greater than 100 µM throughout.

As for `CCOc1ccccc1NC(=O)C(=O)c1c(O)c2ccc(O)cc2oc1=O`, the TGI in the test with SN12C renal, with NCI-H522 lung, in the test on COLO 205 colon, in the test with MALME-3M melanoma, in the test with NCI-H460 lung and in the test on HCT-15 colon was greater than 100 µM in each case. Further, the TGI in the test on SW-620 colon and in the test with U251 CNS was greater than 100 µM each time.

For the molecule `CC(=O)Oc1cc2c(n(C)c1=O)CCC2`, the TGI with SN12C renal, in the test on COLO 205 colon, in the test with MALME-3M melanoma, in the test with NCI-H460 lung, in the test on HCT-15 colon and with SW-620 colon was greater than 100 µM throughout. Also, the TGI with U251 CNS and with BT-549 breast was greater than 100 µM in each case.

As to `Cc1cc2nc3c(C#N)c4c(c(Nc5ccc(Cl)cc5)n3c2cc1C)CCC4`, the TGI worked out at 34.4 µM in the test on SN12C renal; 26.5 µM in the test with NCI-H522 lung; 59.1 µM with COLO 205 colon; 55 µM with MALME-3M melanoma; 36.7 µM in the test with HCT-15 colon; 34 µM in the test with SW-620 colon. Also, the figures for the TGI in the test on U251 CNS and in the test on BT-549 breast were 32.9 µM and 44.8 µM, respectively.

On to `CCCC(=O)Oc1cc(OC(=O)CCC)c2c(C)cc(=O)oc2c1`, for which the TGI with SN12C renal, in the test on COLO 205 colon, in the test with MALME-3M melanoma, in the test with HCT-15 colon, in the test on MDA-N and with SW-620 colon was greater than 100 µM throughout. The molecule further yielded a TGI in the test with U251 CNS greater than 100 µM.

In the case of `OCC(O)C(O)C(C=NNc1ncnc2ccc(Br)cc12)=NNc1ncnc2ccc(Br)cc12` (stereo not drawn), the TGI was greater than 100 µM in the test with SN12C renal; 11.3 µM and 35.9 µM in the test on NCI-H522 lung; greater than 100 µM with COLO 205 colon; greater than 100 µM in the test with MDA-N; greater than 100 µM in the test with SW-620 colon; 67.3 µM and > 100 µM in the test on U251 CNS.

Regarding `C=[N+](CNC(=O)CNC(=O)C(Cc1ccccc1)NC(=O)OC(C)(C)C)C(=O)CNC(=O)C(Cc1ccccc1)NC(=O)OC(C)(C)C` (stereo not drawn), the TGI in the test on SN12C renal, in the test on NCI-H522 lung, in the test on COLO 205 colon, in the test with MALME-3M melanoma, in the test on NCI-H460 lung and in the test with HCT-15 colon was greater than 100 µM throughout. For the same molecule, the TGI in the test on MDA-N and in the test with SW-620 colon was greater than 100 µM each time.

On to `COC(=O)/C=C/N1CC1`, for which the TGI with SN12C renal is greater than 10 µM; with NCI-H522 lung, greater than 10 µM; in the test on COLO 205 colon it was 9.07 µM; in the test with MALME-3M melanoma it was greater than 10 µM; with NCI-H460 lung, greater than 10 µM; in the test with HCT-15 colon, greater than 10 µM. Further, the TGI in the test with U251 CNS and with BT-549 breast was greater than 10 µM in each case.

`CC(=O)CC(=O)ON(C)C(=O)Cc1ccccc1`: the TGI in the test on SN12C renal, with NCI-H522 lung, with COLO 205 colon, in the test on MALME-3M melanoma, in the test with NCI-H460 lung and in the test with HCT-15 colon was greater than 100 µM throughout. Further, the TGI in the test with SW-620 colon and in the test on U251 CNS was greater than 100 µM in each case.

For the molecule `Cc1ccccc1NC(=O)CC(=O)n1nc(-c2ccccc2)c(N=Nc2ccc([N+](=O)[O-])cc2)c1-c1ccccc1`, the TGI in the test on SN12C renal was 58.4 µM; in the test on NCI-H522 lung it was 45.5 µM; with COLO 205 colon it was 30.5 µM; in the test with MALME-3M melanoma, 75.9 µM; in the test with NCI-H460 lung, greater than 100 µM; in the test with SW-620 colon, greater than 100 µM. The molecule also showed a TGI with U251 CNS of 34.6 µM.

Regarding `CC(C)(C)c1cc2c(O)c(c1)COCc1cc(C(C)(C)C)cc(c1O)COCc1cc(C(C)(C)C)cc(c1O)COC2`, the TGI with COLO 205 colon, with NCI-H460 lung, in the test on HCT-15 colon, in the test on SW-620 colon, in the test on U251 CNS and with BT-549 breast was greater than 100 µM in each case.

Turning to `CN1C(=O)C(O)C[C@@H]1c1ccc(F)cc1` (stereo partly drawn), the TGI in the test on SN12C renal, in the test with COLO 205 colon, in the test on HCT-15 colon, in the test on MDA-N, in the test on U251 CNS and in the test on BT-549 breast was greater than 100 µM in each case.
